Measured values from patent US8618063B2, “Method for treating a synucleinopathy” (The Board of Trustees of the University of Illinois, priority 2008, dated 2013).
Entries after “also recorded” stand apart in the source; their conditions may differ.

What was measured:
[1] = target: T1, PKCμ (Homo sapiens, UniProt Q15139); details: cited from earlier work
T1 sequence (Q15139 1-912): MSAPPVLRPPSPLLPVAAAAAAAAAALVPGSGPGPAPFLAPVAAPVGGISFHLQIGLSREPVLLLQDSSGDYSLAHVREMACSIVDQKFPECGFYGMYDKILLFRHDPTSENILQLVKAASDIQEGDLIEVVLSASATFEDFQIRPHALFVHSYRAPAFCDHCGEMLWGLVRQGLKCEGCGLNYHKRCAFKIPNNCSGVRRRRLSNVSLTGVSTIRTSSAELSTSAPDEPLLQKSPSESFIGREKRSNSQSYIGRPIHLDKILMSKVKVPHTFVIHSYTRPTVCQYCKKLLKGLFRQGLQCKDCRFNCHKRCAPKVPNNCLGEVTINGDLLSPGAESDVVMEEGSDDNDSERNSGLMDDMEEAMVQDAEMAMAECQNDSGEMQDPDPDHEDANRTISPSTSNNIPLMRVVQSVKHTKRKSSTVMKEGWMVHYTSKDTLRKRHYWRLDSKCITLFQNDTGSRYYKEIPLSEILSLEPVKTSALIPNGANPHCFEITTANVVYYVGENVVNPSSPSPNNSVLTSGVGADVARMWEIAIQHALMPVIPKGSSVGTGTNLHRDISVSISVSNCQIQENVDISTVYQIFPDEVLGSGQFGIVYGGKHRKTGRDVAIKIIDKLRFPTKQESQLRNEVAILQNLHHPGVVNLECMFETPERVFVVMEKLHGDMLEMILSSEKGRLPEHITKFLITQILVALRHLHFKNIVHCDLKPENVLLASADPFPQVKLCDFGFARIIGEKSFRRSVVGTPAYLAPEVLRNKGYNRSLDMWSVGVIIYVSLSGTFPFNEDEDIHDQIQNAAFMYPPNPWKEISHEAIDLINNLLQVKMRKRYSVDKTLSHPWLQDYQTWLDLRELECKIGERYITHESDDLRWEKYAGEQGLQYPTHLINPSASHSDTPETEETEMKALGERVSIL

[2] = test system: phosphorylation of DIC; test: NGF/BDNF (Trk receptor) induced shift of dynein intermediate chain; format: cell-based; details: Trk neurotrophin receptors; Gö6976 at 100 nM
Excerpt: Specifically, NGF and BDNF binding to Trk neurotrophin receptors caused a shift in the apparent molecular weight of dynein intermediate chain (DIC). To identify the kinase pathway involved in this change, more than 30 different kinase and phosphatase inhibitors were screened.

[3] = target: PKCα (Homo sapiens, UniProt P17252); details: cited from earlier work
[4] = test system: MPP+ effects on fast axonal transport; test: Isolated axoplasm: blocking of MPP+ effects on fast axonal transport; format: cell-based, squid Loligo pealeii; details: for blocking of MPP+ effects on fast axonal transport: FIG. 5B
Method: (§1) Axoplasm was extruded from giant axons of the squid Loligo pealeii (Marine Biological Laboratory) according to established methods (Brady, et al. (1985) Cell Motil. 5(2):81-101). Axons were 400-600 μm in diameter and provided ≈5 μl of axoplasm per axon. Wild-type α-synuclein or α-synuclein with point mutations associated with familial Parkinson's disease (Ala30Pro or Ala53Thr), MPP+, enzymes or inhibitors were diluted into X/2 buffer (175 mM potassium aspartate, 65 mM taurine, 35 mM betaine, 25 mM glycine, 10 mM HEPES, 6.5 mM MgCl2, 5 mM EGTA, 1.5 mM CaCl2, 0.5 mM glucose, pH 7.2) supplemented with 2-5 mM ATP and 20 μl of this mix was added to perfusion chambers (Brady, et al. (1985) supra). Preparations were analyzed on a ZEISS AXIOMAT with a 100×, 1.3 na objective, and DIC optics. Hamamatsu Argus 20 and Model 2400 CCD camera were used for image processing and analysis. Organelle velocities were measured with a Photonics Microscopy C2117 video manipulator (Hamamatsu).
(§2) MPTP/MPP+ is the best characterized example of toxin-induced Parkinson's disease. The effects of MPP+ on fast axonal transport were examined in axoplasm as was dynein phosphorylation in cells. […] Based on reports that MPP+ could activate caspase3 (Turmel, et al. (2001) Mov. Disord. 16:185-9) and that caspase3 can activate a PKC by proteolytic cleavage (Kaul, et al. (2003) Eur. J. Neurosci. 18:1387-401), the ability of a caspase3 inhibitor to block effects of MPP+ on fast axonal transport was evaluated. […] Further, perfusion with Caspase 3 affected retrograde transport in a manner similar to PKC and MPP+ (retrograde transport=1.462±0.016 μm/sec).

[5] = target: PKCδ (Homo sapiens, UniProt Q05655); details: cited from earlier work
Sequence of PKCδ (Q05655 whole entry): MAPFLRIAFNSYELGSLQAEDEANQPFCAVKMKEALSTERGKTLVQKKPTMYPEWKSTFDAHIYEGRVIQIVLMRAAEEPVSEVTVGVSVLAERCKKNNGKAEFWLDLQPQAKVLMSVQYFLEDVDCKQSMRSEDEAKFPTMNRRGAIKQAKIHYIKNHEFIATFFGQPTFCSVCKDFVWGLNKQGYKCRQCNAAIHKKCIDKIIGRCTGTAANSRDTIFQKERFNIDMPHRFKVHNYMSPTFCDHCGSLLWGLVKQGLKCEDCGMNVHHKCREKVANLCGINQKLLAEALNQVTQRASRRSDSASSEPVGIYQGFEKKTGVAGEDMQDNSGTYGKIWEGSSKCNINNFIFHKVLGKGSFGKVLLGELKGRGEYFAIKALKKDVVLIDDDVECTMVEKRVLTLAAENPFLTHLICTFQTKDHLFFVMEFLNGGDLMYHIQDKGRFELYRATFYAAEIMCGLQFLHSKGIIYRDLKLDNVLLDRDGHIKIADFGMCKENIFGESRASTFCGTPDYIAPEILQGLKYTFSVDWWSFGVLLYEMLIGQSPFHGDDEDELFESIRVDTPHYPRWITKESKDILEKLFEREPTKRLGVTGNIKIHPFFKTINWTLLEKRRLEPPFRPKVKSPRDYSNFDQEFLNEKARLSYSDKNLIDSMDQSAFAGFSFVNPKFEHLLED

[6] = target: T2, PKCζ (Homo sapiens, UniProt Q05513); details: cited from earlier work
T2 sequence (Q05513 1-592): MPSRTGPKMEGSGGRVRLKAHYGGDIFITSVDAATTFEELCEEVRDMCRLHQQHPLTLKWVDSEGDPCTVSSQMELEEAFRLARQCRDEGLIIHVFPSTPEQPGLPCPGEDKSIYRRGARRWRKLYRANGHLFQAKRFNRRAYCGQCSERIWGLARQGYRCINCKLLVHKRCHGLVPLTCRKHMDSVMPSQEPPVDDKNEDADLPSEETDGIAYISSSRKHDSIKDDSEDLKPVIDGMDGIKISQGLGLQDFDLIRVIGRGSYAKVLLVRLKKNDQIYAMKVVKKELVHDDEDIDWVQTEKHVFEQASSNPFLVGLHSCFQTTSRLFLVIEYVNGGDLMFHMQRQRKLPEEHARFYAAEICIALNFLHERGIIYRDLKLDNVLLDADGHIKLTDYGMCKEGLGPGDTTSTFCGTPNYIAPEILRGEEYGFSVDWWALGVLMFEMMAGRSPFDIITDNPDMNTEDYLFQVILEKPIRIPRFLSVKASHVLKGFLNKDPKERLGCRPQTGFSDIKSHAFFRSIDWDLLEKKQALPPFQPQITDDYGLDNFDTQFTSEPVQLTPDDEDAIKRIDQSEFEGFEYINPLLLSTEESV

[7] = target: PKCβ (Homo sapiens, UniProt P05771); details: cited from earlier work
Sequence of PKCβ (P05771 whole entry, species assumed, the tested form may be a part): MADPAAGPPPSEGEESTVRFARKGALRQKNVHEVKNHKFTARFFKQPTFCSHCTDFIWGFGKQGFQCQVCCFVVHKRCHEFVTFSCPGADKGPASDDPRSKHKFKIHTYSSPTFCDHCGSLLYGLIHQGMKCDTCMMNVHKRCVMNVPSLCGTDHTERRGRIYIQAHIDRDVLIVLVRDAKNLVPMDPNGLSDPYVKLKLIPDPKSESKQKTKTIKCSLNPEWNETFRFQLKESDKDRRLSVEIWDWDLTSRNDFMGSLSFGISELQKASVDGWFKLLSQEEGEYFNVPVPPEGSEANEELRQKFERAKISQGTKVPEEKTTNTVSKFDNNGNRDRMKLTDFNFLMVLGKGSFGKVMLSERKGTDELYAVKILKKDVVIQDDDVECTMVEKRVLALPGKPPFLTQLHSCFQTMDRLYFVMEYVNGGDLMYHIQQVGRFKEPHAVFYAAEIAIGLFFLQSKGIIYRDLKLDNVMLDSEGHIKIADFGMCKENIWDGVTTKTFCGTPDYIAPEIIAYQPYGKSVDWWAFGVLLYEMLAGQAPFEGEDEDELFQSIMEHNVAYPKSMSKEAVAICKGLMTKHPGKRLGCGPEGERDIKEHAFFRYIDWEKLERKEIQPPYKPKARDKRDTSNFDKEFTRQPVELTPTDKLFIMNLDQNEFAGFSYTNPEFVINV

[8] = test system: Ala30Pro mutant α-synuclein induced failure of neurotransmission; test: Squid giant synapse: prevention of Ala30Pro α-synuclein induced failure of neurotransmission; format: cell-based; details: co-injection / coperfusion with Ala30Pro α-synuclein
Method: (§3) If they both work by activating PKC and increasing retrograde transport, they might affect availability of synaptic vesicle components in presynaptic terminals. Accordingly, either wild-type α-synuclein, Ala30Pro α-synuclein, or MPP+ were injected into the presynaptic side of the squid giant synapse as described for synaptic vesicles and synapsin (McGuinness, et al. (1989) J. Neurosci. 9:4138-4149; Llinas, et al. (1989) Proc. Nat. Acad. Sci. USA 86:5656-5660). This preparation has been used to evaluate the effects of reagents on presynaptic function by injecting, then stimulating the presynaptic side while recording intracellularly on both pre- and post-synaptic sides (Llinas, et al. (2004) Proc. Natl. Acad. Sci. USA 101:17855-60; Sugimori, et al. (1998) Neuroscience 86:39-51).

[9] = target: PKCγ (Homo sapiens, UniProt P05129); details: cited from earlier work
[10] = test system: α-synuclein mutant Ala30Pro effects on fast axonal transport; test: Isolated axoplasm: blocking of mutant α-synuclein (Ala30Pro) effects on fast axonal transport; format: cell-based, squid Loligo pealeii; details: coperfused with α-synuclein mutant Ala30Pro, FIG. 3
Method: as §1
Accordingly, these inhibitors were coperfused with pathological α-synuclein mutant Ala30Pro and fast axonal transport was monitored. […] Similarly, the effects of α-synuclein mutant Ala30Pro could be blocked by a PKCmu peptide substrate (FIG. 3B) and an inhibitor of Src-Family Tyrosine Kinases (PP2) (FIG. 3C).

[11] = test system: Src/Fyn effects on fast axonal transport; test: Isolated axoplasm: blocking of Src/Fyn effects on fast axonal transport; format: cell-based, squid Loligo pealeii; details: concentration not given
Method: as §1
Screening of nonreceptor tyrosine kinases included Src- and Abl-family members. […] Given that neither kinesin nor dynein are known to have tyrosine phosphorylations, the ability of a broad spectrum PKC inhibitor Gö6976 was included in the assay to block the action of Fyn. Gö6976 inhibition of PKC abolished actions of Src/Fyn on fast axonal transport (FIG. 1D), as did perfusion of the MARCKS peptide.

[12] = test system: MPP+ induced failure of neurotransmission; test: Squid giant synapse: prevention of MPP+ induced failure of neurotransmission; format: cell-based; details: co-injection with MPP+
Method: as §3

[13] = test system: DIC phosphorylation; test: Labeling studies with MPP+ treated cortical neurons; format: cell-based
Method: One mCi ^32P phosphate (ICN) was added per dish and incubated for 4 hours. Medium was discarded, cells homogenized in 1 ml of ROLB buffer and processed accordingly to standard methods (Morfini, et al. (2004) supra). Axoplasms were prepared as for video microscopy, but 1 mCi of γ-^32P-ATP was added. After 50 minutes incubation, axoplasms were homogenized in ROLB buffer. A 10 μl aliquot of lysate was precipitated with 15% TCA and radioactivity incorporated into protein determined by scintillation counting. Aliquots of equal counts were used for kinesin immunoprecipitation with 10 μg of 74.1 antibody and Protein G-agarose beads (Pierce). Immunoprecipitates were separated by SDS-PAGE, dried and exposed in a PHOSPHORIMAGER cassette, then scanned and quantified on a TYPHOON (Amersham/Molecular Dynamics).
as §2

[14] = test system: PKC; test: PKC activity in axoplasm; format: biochemical, squid
Method: In the analysis disclosed herein, 3-4 axoplasms were triturated in KB buffer (10 mM HEPES, pH 7.4, 10 mM MgCl2, 1 mM DTT) and aliquoted. Individual reactions with corresponding in vitro translated AR constructs were started by adding radiolabeled ATP to 100 μM. Reactions were performed in 50 μl, incubated for 20 minutes at room temperature and stopped with 50 μl of 2× sample buffer. Lysates were separated by SDS-PAGE and analyzed by autoradiography.

[15] = test system: neurotransmission at squid giant synapse; test: Squid giant synapse: neurotransmission after presynaptic injection; format: cell-based; details: injected into presynaptic side of squid giant synapse; observed up to 90 minutes
Method: as §3

[16] = test system: fast axonal transport; test: Motility studies in isolated axoplasm: effect of perfused substance on fast axonal transport; format: cell-based, squid Loligo pealeii; details: substance perfused alone into isolated axoplasm
Method: as §1

## COc1ccc2c(c1)c(C1=C(c3c[nH]c4ccccc34)C(=O)NC1=O)cn2CCCN(C)C [Gö6983]
[1]
  IC50: 20000 nM
[2]
  blocking of NGF/BDNF induced shift (phosphorylation) of DIC: failed to block
[3]
  IC50: 7 nM
[4]
  blocking of MPP+ effects on fast axonal transport: blocked
[5]
  IC50: 10 nM
[6]
  IC50: 60 nM
[7]
  IC50: 7 nM
[8]
  prevention of Ala30Pro α-synuclein effect on neurotransmission: not effective
[9]
  IC50: 6 nM
[10]
  blocking of familial Parkinson's disease mutant α-synuclein (Ala30Pro) effects on fast axonal transport: ineffective; also recorded: not effective
[11]
  blocking of Src/Fyn actions on fast axonal transport: did not block

## COC(=O)CC[C@H](NC(=O)[C@H](CC(=O)OC)NC(=O)OCc1ccccc1)C(=O)N[C@H](C(=O)N[C@@H](CC(=O)OC)C(=O)CF)C(C)C [Caspase3 Inhibitor II]
[4]
  blocking of MPP+ effects on fast axonal transport: completely block
[4]; listed as caspase3 inhibitor II
  blocking of MPP+ effects on fast axonal transport: blocked
[4]; coperfused with MPP+
  anterograde transport rate in presence of MPP+ and inhibitor: 1.527±0.019 μm/sec
  retrograde transport rate in presence of MPP+ and inhibitor: 1.187±0.019 μm/sec
[8]
  prevention of Ala30Pro α-synuclein effect on neurotransmission: not effective
[12]
  prevention of MPP+ induced failure of neurotransmission: prevented
[10]; listed as Caspase inhibitor
  blocking of familial Parkinson's disease mutant α-synuclein (Ala30Pro) effects on fast axonal transport: ineffective
[10]; listed as inhibitors of Caspase 3
  blocking of familial Parkinson's disease mutant α-synuclein (Ala30Pro) effects on fast axonal transport: not effective
[13]; MPP+ treated cortical neurons
  blocking of MPP+ induced increase in DIC phosphorylation: blocked

## C[n+]1ccc(-c2ccccc2)cc1 [MPP+]
[14]
  PKC activity in axoplasm: activated PKC activity
[15]
  effect on neurotransmission, in words: failure of neurotransmission
[16]; controls 1.2 μm/sec
  retrograde transport rate: 1.461±0.023 μm/sec
[16]; controls 1.6 μm/sec
  anterograde transport rate: 1.272±0.0032 μm/sec
[13]; cortical neurons treated with substance alone
  DIC phosphorylation: increased DIC phosphorylation
